Laboratory results taken from patent publication EP1946758A1, “Treatment of acute myeloid leukemia” (PIERRE FABRE MEDICAMENT, priority 2007, dated 2008).

Experiments:
[1] = Stability in blood serum (hydrolysis followed by TLC); assay type: in vitro ADME; settings: rat serum, 37°C
Description: The stability of triptolide succinate in blood serum was determined. In this study, a solution of triptolide succinate (the free acid of the sodium triptolide succinate) in DMSO was mixed with rat serum and incubated at 37°C. The mixture was assayed periodically by thin layer chromatography (TLC) to follow the hydrolysis of the triptolide succinate over time. […] After 15 minutes, the triptolide succinate spot was gone and a new spot corresponding to triptolide had appeared (Rf =0.60). Finally, after 45 minutes, the triptolide spot had also disappeared, and only low Rf material (blood serum components and decomposition products) remained.
Stability in Blood Serum: a solution of triptolide succinate (free acid) in DMSO can be made at a concentration of 25 mg/ml, and 0.1 ml of this solution can be mixed with 0.5 ml of rat serum. The mixture was incubated at 37°C. Aliquots of the mixture should then be taken at 1, 3, 5, 15, 45 minutes and 18 hours and analyzed by thin layer chromatography (TLC). The TLC plates can be developed in 1:5 CH2Cl2/Et2O. After development, the plates can be treated with iodine vapor and examined under a UV lamp. Triptolide and triptolide succinate can be used as reference compounds (Rf =0.60, and 0.45, respectively).
After 15 minutes, the triptolide succinate spot may be gone (Rf =0.45), and a new spot corresponding to triptolide may have appeared (Rf =0.60). After 45 minutes, the triptolide spot may also disappear, and only low Rf material (blood serum components and decomposition products) may remain.

[2] = Stability in water (D2O solution followed by proton NMR); assay type: physicochemical; settings: room temperature; for change in the NMR spectrum: 3 mg/ml
Description: Sodium triptolide succinate was dissolved in D2O, and the aqueous solution was stored at room temperature.
Stability in Water: a solution of sodium triptolide succinate in D2O can be prepared at a concentration of 3 mg/ml and stored at room temperature. The solution can be analyzed by ^1H NMR at intervals of 1, 3, 5, 15, 45, 90, 180 minutes; 1, 7, 14 days; and 1, 2, 3, and 5 months.

[3] = test system: relapsed or refractory acute myeloid leukemia; test: Exploratory dose escalation treatment of patients with relapsed or refractory leukemias; assay type: in vivo
Description: PG490-88 Na is a 14-succinyl triptolide sodium salt of triptolide (PG490).
In this example, 29 patients with relapsed or refractory leukemias were treated. Median age was 57 years (range : 30 - 79). Sixty two percent of patients were male. Twelve dose levels from 0.150 to 13 mg/m^2/day were tested in one patient each, with an increase by 50% for each successive cohort of patients until one dose limiting toxicity (DLT) was observed. Thereafter, dose escalation was switched to a standard design using cohorts of 3 to 6 patients per dose level, with 30% dose increments.
Among all the patients, 6 […] presented with a disease refractory to standard induction chemotherapy and the others were in 1st or 2nd relapse who had failed salvage therapy for 9 of them. […]

[4] = patients with relapsed or refractory leukemias
[5] = recommended dose of 5.7 mg/m^2/day

Compound: Triptolide Succinate
- time for hydrolysis in serum to release free triptolide [1]: less than an hour
- species detected by TLC ([1]; after 3 minutes): only triptolide succinate may be detected
- triptolide succinate spot (Rf =0.45) by TLC ([1]; after 15 minutes): gone
- triptolide succinate spot (Rf =0.45) by TLC ([1]; within the first 3 to 5 minutes): most of the triptolide succinate remained

Compound: CC(C)[C@]12O[C@H]1[C@@H]1O[C@]13[C@]1(O[C@H]1C[C@H]1C4=C(CC[C@@]13C)C(=O)OC4)[C@@H]2OC(=O)CCC(=O)[O-].[Na+] [PG490-88 Na, 14-succinyl triptolide sodium salt]
- change in the NMR spectrum ([2]; after 5 months): Some decomposition
- change in the NMR spectrum ([2]; during the first three months): No appreciable change
- stability in aqueous solution (proton NMR spectra) ([2]; after five months): some decomposition
- stability in aqueous solution (proton NMR spectra) ([2]; after three months): unchanged
- cerebellar toxicity, patients ([3]; 7 mg/m^2/day (one grade 2 and two grade 4)): 3 patients
- cerebellar toxicity, patients ([3]; 8.5 mg/m^2/day (two grade 4)): 2 patients
- response ([3]; another patient, 8.5 mg/m^2/day, after 2 cycles of treatment): CRp: complete remission without full platelets recovery
- cerebellar toxicity, patients ([3]; doses > 5.7 mg/m^2/day): 5 patients
- overall response on relapsed or refractory acute myeloid leukemia ([3]; exploratory dose escalation experiments): very good response
- response ([3]; one patient, 5.7 mg/m^2/day, day 15 of the treatment, one cycle): complete remission (CR) with pancytopenia
- haematological toxicity ([3]; patient with CRp, 8.5 mg/m^2/day, after cycle 2): no haematological toxicity
- haematological toxicity ([3]; patient with CRp, 8.5 mg/m^2/day, after the first cycle): grade 4 aplasia lasting 20 days
- maximum tolerated dose (MTD) [3, 4]: 7 mg/m^2/day
- recommended dose for this regimen [3, 4]: 5.7 mg/m^2/day
- grade 3 leucopenia (related adverse event), patients [3, 5]: 1 patient
- other related adverse events [3, 5]: mild diarrhoea, nausea and vomiting
- haematological toxicity ([3]; third patient (complete remission), 8.5 mg/m^2/day, after the first cycle): moderate leucopenia (grade 1 lasting 2 days)
- haematological toxicity ([3]; third patient (complete remission), 8.5 mg/m^2/day, during the second cycle): no haematotoxicity
- response ([3]; third patient, 8.5 mg/m^2/day, after 2 cycles of treatment): complete remission
